The record followed here is BindingDB's records for doi:10.1021/jm00099a006 (Merck Research Laboratories, 1992).

In this experiment the target is T1, Gag-Pol polyprotein [588-1027]/[588-1147] (Human immunodeficiency virus 1, UniProt P04585).
T1 construct: 588-1027; 588-1147
In words: HIV-1 RT Assay. The following applies: pH 8.2.

Compound `CCc1cc(C(=O)CN2C(=O)c3ccccc3C2=O)c(OC)nc1C` [2-[2-(5-ethyl-2-methoxy-6-methylpyridin-3-yl)-2-oxoethyl]-2,3-dihydro-1H-isoindole-1,3-dione] displayed an IC50 above 300 µM.

For the compound `CCc1cc(C(O)CN2C(=O)c3ccccc3C2=O)c(OC)nc1C` (stereo not drawn) [2-[2-(5-ethyl-2-methoxy-6-methylpyridin-3-yl)-2-hydroxyethyl]-2,3-dihydro-1H-isoindole-1,3-dione], the IC50 is above 300 µM.

Regarding `CCc1cc(CCN2C(=O)c3ccccc3C2=O)c(OC)nc1C` [2-[2-(5-ethyl-2-methoxy-6-methylpyridin-3-yl)ethyl]-2,3-dihydro-1H-isoindole-1,3-dione], the IC50 was 6.2 µM.

As to `O=C1c2ccccc2C(=O)N1CCc1cccnc1O` [2-[2-(2-oxo-1,2-dihydropyridin-3-yl)ethyl]-2,3-dihydro-1H-isoindole-1,3-dione], the IC50 was above 300 µM.

On to `CCc1cc(CCCN2C(=O)c3ccccc3C2=O)c(OC)nc1C` [2-[3-(5-ethyl-2-methoxy-6-methylpyridin-3-yl)propyl]-2,3-dihydro-1H-isoindole-1,3-dione], for which the IC50 is above 300 µM.

Compound `CCc1cc(C(O)CN2C(=O)c3ccccc3C2=O)c(O)nc1C` (stereo not drawn) [2-[2-(5-ethyl-6-methyl-2-oxo-1,2-dihydropyridin-3-yl)-2-hydroxyethyl]-2,3-dihydro-1H-isoindole-1,3-dione] gave an IC50 above 300 µM.

In the case of `CCc1cc(CN2C(=O)c3ccccc3C2=O)c(OC)nc1C` [2-[(5-ethyl-2-methoxy-6-methylpyridin-3-yl)methyl]-2,3-dihydro-1H-isoindole-1,3-dione], the IC50 worked out at 16 µM.

In the case of `CCc1cc(C(=O)CN2C(=O)c3ccccc3C2=O)c(=O)[nH]c1C` [2-[2-(5-ethyl-6-methyl-2-oxo-1,2-dihydropyridin-3-yl)-2-oxoethyl]-2,3-dihydro-1H-isoindole-1,3-dione], the IC50 is above 300 µM.

For orientation: IC50 means the concentration at which inhibition is half-maximal. A high value points to weaker potency in that assay.
